Assay results published in patent US12071424B2, “IRE1 small molecule inhibitors” (Cornell University, priority 2017, dated 2024).

Assays:
in vivo = details: mouse, po, 30 mg/kg
IRE1a [1] = assay: IRE1a Endoribonuclease Nanoluciferase Assay (XBP1 luciferase reporter in 293T cells); assay type: cell-based, human; details: Homo sapiens, HEK-293T, ER stressor, tested as Formic Acid Salt (37: HCl Salt)
How it was run: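 293T cells transiently transfected with a PGK-Luc2-P2A-XBP1u-Nanoluciferase-Pest reporter, replated after 6 h, then treated next day with ER stressors ± inhibitors. After lysis, firefly luminescence then nanoluciferase luminescence read sequentially (1000 ms integration each).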

IRE1a [2] = molecular target: T1, IRE1a (Homo sapiens, UniProt O75460); assay: In vitro FRET assay (IRE1a cleavage of XBP1 RNA probe); assay type: biochemical; details: 2 nM SignalChem IRE1a, tested as Formic Acid Salt (37: HCl Salt)
T1 construct: purchased SignalChem
How it was run: Human

hERG channel = molecular target: T2, hERG channel (Homo sapiens, UniProt Q12809); assay: hERG potassium ion channel automated planar clamp (QPatch) in stable CHO cell line; assay type: cell-based; details: Formic Acid Salt (37: HCl Salt), read-out: hERG channel blockade Mean IC50
T2 construct: expressed in transfected cells
Experimental: Blockade of the cardiac ion channel coded by the hERG gene can lead to cardiac arrhythmia. […] To determine the viability of the compounds disclosed herein as pharmacological agents that would not affect the hERG channel blockade, a standard automated planar clamp method was employed to determine the IC50 for various test compounds on their inhibition of the channel. An electrophysiological assay was prepared to measure the electric current passing through the hERG channel expressed in a stable CHO cell line by applying the planar clamp method. This assay was performed using the automated QPatch platform (Sophion, Denmark) which allows fast and accurate electrophysiological characterization of the hERG ion channel and the determination of IC50 values for the test compounds, as shown in Table 9.

293T cells = assay: Growth assay (cytotoxicity); assay type: cell-based, human; details: Formic Acid Salt (37: HCl Salt)
Experimental: A growth assay was performed to evaluate the compounds disclosed herein for cytotoxicity. Briefly, 5,000,000 293T cells were resuspended in 18 mL of cDMEM for a final concentration of […]. […] In a separate 96 well dilution plate, 199 uL cDMEM and 1 uL of DMSO or any one of the compounds disclosed herein (shown as Test Compound 1, 2, 3, 4, 5, or 6 below) were added to wells A4, A8, C4, C8, E4, E8, G4, and G8, 133.3 uL cDMEM was added to wells 1, 2, 3, 5, 6, and 7 in rows A, C, E and G of the dilution plate. Compounds were serially diluted leftwards in threefold dilutions (66.7 uL into 133.3 uL cDMEM). 20 uL of each dilution was transferred in duplicate (duplicates in vertical paired wells) to the cells plated in the 96-well plate shown in Table 5, to the total concentrations shown below. 200 uL cDMEM was addled to media wells (wells G5-H8). The plate was then placed in a humidified chamber for a […], and then photographed (media was more yellow in wells with potent cell growth). Absorbance was then measured at ˜[…] (lower for more acidic media) and ˜450 nM (higher for more acidic media).

[3] = Bioavailability assay (pharmacokinetic study); details: mouse; IV 1 mg/kg, PO 30 mg/kg (Compound A PO 10 mg/kg)
[4] = test system: IRE1a-mediated XBP1 splicing; assay: Target engagement in pancreas and salivary gland (RT-qPCR XBP1 splicing); assay type: in vivo; details: mouse, 30 mg/kg oral gavage, 6 hours; compared to control and Compound B
Experimental: Mice (n=3 per group) were orally gavaged with 30 mg/kg vehicle control or IRE1 inhibitors dissolved in H2O. After 6 hours, mice were euthanized and pancreas and salivary gland tissues were isolated, snap frozen on dry ice, and used for subsequent RT-qPCR analysis of beta-actin, XBP1s and total XBP1. Gene expression was evaluated by quantitative PCR for XBP1s and total XBP1 transcripts using the 2^(−ΔCT) method for calculating normalized gene expression. Gene expression levels were normalized to Actb transcripts. XBP1 splicing is calculated as XBP1s expression divided by total XBP1 expression.

IRE1a/XBP1 pathway = assay: Inhibition of endogenous XBP1 splicing in 293T cells with tunicamycin; assay type: cell-based, human
Experimental: Gene expression was evaluated by quantitative PCR for XBP1s and total XBP1 transcripts using the 2^(−ΔCT) method for calculating normalized gene expression. Gene expression levels were normalized to ACTB transcripts. XBP1 splicing was calculated as actin-normalized XBP1s expression divided by actin-normalized total XBP1 expression.

[5] = Metabolic assays of N,N-dimethyl compounds; assay type: in vitro ADME; details: data not shown
[6] = test system: IRE1a-dependent XBP1 splicing; assay: Inhibition of IRE1a-dependent XBP1 splicing in mice with metastatic ovarian cancer; assay type: in vivo, mouse; details: single oral dose 45 mg/kg, 24 hours, FACS-isolated ascites cells
Experimental: Mice (n=3) with established metastatic ovarian cancer were orally gavaged with 45 mg/kg vehicle control or inhibitor dissolved in H2O. The Inhibitor was Compound C. Compound C is 2-chloro-N-(5-(2-(((1r,4r)-4-dimethylamino)cyclohexyl)amino)-8-ethylquinazolin-6-yl)-6-methylpyridin-2-yl)benzenesulfonamide, Compound 91, described herein. After 24 hours, mice were euthanized, ascites-resident cells were extracted and tumor cells, dendritic cells (DCs), and CD4+ T cells were isolated by FACS. The samples were used for subsequent if RT-qPCR analysis of beta-actin, XBP1s and total XBP1. Gene expression was evaluated by quantitative PCR for XBP1s and total XBP1 transcripts using the 2^(−ΔCT) method for calculating normalized gene expression. Gene expression levels were normalized to Actb transcripts. XBP1 splicing is calculated as XBP1s expression divided by total XBP1 expression. A single oral dose of Compound C suppressed IRE1a-dependent XBP1 splicing in tumor cells and relevant immune cells in vivo over 24 hours, FIG. 7.
Mice (n=3) with established metastatic ovarian cancer were orally gavaged with 45 mg/kg vehicle control or inhibitor dissolved in H2O. […] Gene expression was evaluated by quantitative PCR for XBP1s and total XBP1 transcripts using the 2^(−ΔCT) method for calculating normalized gene expression. […] XBP1 splicing is calculated as XBP1s expression divided by total XBP1 expression. […]

IRE1a [7] = assay: IRE1a phosphorylation inhibition assay (immunoblot, 293T cells, tunicamycin); assay type: cell-based, human
Experimental: Inhibition of ER stress-induced IRE1a phosphorylation and XBP1s protein accumulation in human 293T cells assessed. Immunoblot analysis was performed in human 293T cells lysates obtained from cells after exposure to the chemical ER stress-inducing agent tunicamycin, and optional treatment with Compound C. Lysates were probed with antibodies recognizing IRE1a, phosphorylated IRE1a, XBP1, or TATA-binding protein (TBP). (TBP) was blotted as a protein loading control. […] See FIG. 8, 20 nM was sufficient to reduce XBP1s protein levels below the limit of detection in this assay.

T2 sequence (Q12809 whole entry): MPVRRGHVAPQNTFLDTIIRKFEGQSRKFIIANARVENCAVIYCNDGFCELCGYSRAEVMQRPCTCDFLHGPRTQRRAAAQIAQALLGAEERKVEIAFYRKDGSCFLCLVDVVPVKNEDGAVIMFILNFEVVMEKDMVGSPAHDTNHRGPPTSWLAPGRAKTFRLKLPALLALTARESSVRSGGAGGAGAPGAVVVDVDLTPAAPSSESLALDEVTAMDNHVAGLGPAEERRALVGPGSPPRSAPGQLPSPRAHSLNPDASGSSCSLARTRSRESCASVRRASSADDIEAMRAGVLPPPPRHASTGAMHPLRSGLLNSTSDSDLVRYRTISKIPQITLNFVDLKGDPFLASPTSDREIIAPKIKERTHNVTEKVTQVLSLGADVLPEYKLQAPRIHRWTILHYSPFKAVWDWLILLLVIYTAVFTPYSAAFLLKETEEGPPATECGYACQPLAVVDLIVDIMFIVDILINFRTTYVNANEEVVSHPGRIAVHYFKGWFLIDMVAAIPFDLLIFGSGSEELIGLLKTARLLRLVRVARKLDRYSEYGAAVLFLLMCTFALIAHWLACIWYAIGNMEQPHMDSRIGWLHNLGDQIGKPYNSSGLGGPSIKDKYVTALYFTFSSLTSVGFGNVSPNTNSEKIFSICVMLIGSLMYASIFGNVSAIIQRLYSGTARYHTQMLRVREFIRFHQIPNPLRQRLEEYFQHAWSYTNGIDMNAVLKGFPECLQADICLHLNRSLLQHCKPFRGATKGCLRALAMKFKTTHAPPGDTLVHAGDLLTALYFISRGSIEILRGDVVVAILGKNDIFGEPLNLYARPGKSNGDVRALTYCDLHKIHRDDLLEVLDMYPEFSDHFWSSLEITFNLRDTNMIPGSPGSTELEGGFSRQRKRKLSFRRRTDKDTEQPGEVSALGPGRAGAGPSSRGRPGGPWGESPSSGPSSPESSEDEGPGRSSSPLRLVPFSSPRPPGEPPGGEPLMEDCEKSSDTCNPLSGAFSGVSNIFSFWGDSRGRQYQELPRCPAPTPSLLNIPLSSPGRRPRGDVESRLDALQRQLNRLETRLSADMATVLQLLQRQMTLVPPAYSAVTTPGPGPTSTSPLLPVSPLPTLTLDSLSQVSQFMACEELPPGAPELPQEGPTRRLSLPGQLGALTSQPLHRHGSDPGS
T1 sequence (O75460 19-977): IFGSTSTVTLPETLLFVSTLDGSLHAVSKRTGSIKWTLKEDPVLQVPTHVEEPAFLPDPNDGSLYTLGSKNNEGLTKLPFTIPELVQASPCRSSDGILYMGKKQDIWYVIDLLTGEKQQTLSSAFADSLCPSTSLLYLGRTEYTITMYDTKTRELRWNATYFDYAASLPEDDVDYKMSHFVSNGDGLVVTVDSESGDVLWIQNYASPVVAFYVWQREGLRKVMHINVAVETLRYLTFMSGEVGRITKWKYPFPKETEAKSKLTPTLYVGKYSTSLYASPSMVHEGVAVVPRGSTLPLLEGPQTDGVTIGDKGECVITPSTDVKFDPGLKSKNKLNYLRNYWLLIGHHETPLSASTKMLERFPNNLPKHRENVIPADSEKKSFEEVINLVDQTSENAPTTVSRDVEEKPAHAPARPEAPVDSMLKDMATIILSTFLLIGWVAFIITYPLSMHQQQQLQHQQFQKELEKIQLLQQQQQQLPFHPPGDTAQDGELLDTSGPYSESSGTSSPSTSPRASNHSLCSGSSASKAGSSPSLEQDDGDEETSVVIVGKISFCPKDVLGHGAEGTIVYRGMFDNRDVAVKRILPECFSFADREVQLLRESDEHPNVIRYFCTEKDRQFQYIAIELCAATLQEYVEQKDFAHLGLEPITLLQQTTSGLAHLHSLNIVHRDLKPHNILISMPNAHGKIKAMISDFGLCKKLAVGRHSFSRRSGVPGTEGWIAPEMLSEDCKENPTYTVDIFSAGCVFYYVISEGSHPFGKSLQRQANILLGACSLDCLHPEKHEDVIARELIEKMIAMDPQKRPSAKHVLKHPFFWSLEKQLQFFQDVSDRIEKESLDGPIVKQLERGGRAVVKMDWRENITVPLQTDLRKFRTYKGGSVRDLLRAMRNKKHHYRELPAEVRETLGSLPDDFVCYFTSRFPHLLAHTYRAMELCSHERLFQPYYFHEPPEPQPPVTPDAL

**Q.** What does the source list for CCc1cc(-c2ccc(NS(=O)(=O)c3ccccc3Cl)nc2C)cc2cnc(N[C@H]3CC[C@H](N(C)C)CC3)nc12 [Compound 91, 2-chloro-N-(5-(2-(((1r,4r)-4-(dimethylamino)cyclohexyl)amino)-8-ethylquinazolin-6-yl)-6-methylpyridin-2-yl)benzenesulfonamide]?
**A.** bioavailability (in vivo): 66%; EC50 (IRE1a [1]): ≤ 5 nM

**Q.** Which bioavailability (in vivo) does the source give for CCc1cc(-c2ccc(NS(=O)(=O)c3ccccc3Cl)nc2OC)cc2cnc(N[C@H]3CC[C@H](N)CC3)nc12 [Compound 37, N-(5-(2-(((1r,4r)-4-aminocyclohexyl)amino)-8-ethylquinazolin-6-yl)-6-methoxypyridin-2-yl)-2-chlorobenzene-sulfonamide] here?
**A.** 17%

**Q.** And the EC50 (IRE1a [1])?
**A.** ≤ 5 nM

**Q.** What about the IC50 (IRE1a [2]) of the same molecule?
**A.** ≤ 5 nM

**Q.** What about the IC50 (hERG channel) of the same molecule?
**A.** 10000 to 50000 nM

**Q.** And the “% Growth at 0.5556 uM” value (293T cells; 0.5556 uM)?
**A.** D (D: >75% to ≤100%)

**Q.** What about the “% Growth at 1.667 uM” value (293T cells; 1.667 uM) of the same molecule?
**A.** C (C: >50% to ≤75%)

**Q.** What about the “% Growth at 5 uM” value (293T cells; 5 uM) of the same molecule?
**A.** B (B: >25% to ≤50%)

**Q.** With CCc1cc(-c2ccc(NS(=O)(=O)c3ccccc3Cl)nc2C)cc2cnc(N[C@H]3CC[C@H](N)CC3)nc12 [Compound A, N-(5-(2-(((1r,4r)-4-aminocyclohexyl)amino)-8-ethylquinazolin-6-yl)-6-methylpyridin-2-yl)-2-chlorobenzenesulfonamide] as the molecule, how does the oral bioavailability [3] read?
**A.** 4%

**Q.** For CCc1cc(-c2ccc(NS(=O)(=O)c3ccccc3Cl)nc2C)cc2cnc(N[C@H]3CC[C@H](N(C)C)CC3)nc12 [Compound C], which “IRE1a-mediated XBP1 splicing in pancreas and salivary gland” value [4] is on record?
**A.** potently suppressed

**Q.** What about the “shift in potency between Compound A and Compound C” value (IRE1a/XBP1 pathway) of the same molecule?
**A.** approximately 3.6 ×

**Q.** What about the metabolism [5] of the same molecule?
**A.** removal of the methyl groups

**Q.** What about the “IRE1a-dependent XBP1 splicing in tumor cells and immune cells in vivo” value [6] of the same molecule?
**A.** suppressed

**Q.** What about the “concentration sufficient to reduce XBP1s protein levels below the limit of detection” value (IRE1a [7]) of the same molecule?
**A.** 20 nM

**Q.** What about the IRE1a phosphorylation (IRE1a [7]; pre-incubation with compound) of the same molecule?
**A.** strongly repressed

**Q.** And the “accumulation of XBP1s protein” value (IRE1a [7]; pre-incubation with compound)?
**A.** completely abrogated

**Q.** What does the source list for CCc1cc(-c2ccc(NS(=O)(=O)c3ccccc3Cl)nc2OC)cc2cnc(N[C@H]3CC[C@H](N(C)C)CC3)nc12 [Compound D]?
**A.** IRE1a-mediated XBP1 splicing in pancreas and salivary gland [4]: potently suppressed; metabolism [5]: removal of the methyl groups; IRE1a-dependent XBP1 splicing in tumor cells and immune cells in vivo [6]: suppressed
